The values that follow come from ChEMBL document CHEMBL1649499, “Nine-hospital study comparing broth microdilution and Etest method results for vancomycin and daptomycin against methicillin-resistant Staphylococcus aureus” (2009).

As usually defined, the MIC is the lowest concentration that inhibits growth of the organism. High values mean a need for much substance, low ones inhibition by little substance.

Converted amounts (≈) assume the structure as drawn.

The subject of assay [1] is Staphylococcus aureus. As to the kind of experiment: Antibacterial activity against methicillin-resistant Staphylococcus aureus by Etest method. The assay is classed as functional.
Assay [2] has as its system Staphylococcus aureus. As to the kind of experiment: Antibacterial activity against methicillin-resistant Staphylococcus aureus by broth microdilution method. It is filed as functional. (In general: Dilution methods test growth across graded concentrations, often in twofold steps.)

For the compound `CCCCCCCCCC(=O)N[C@@H](Cc1c[nH]c2ccccc12)C(=O)N[C@H](CC(N)=O)C(=O)N[C@@H](CC(=O)O)C(=O)N[C@@H]1C(=O)NCC(=O)N[C@@H](CCCN)C(=O)N[C@@H](CC(=O)O)C(=O)N[C@H](C)C(=O)N[C@@H](CC(=O)O)C(=O)NCC(=O)N[C@H](CO)C(=O)N[C@@H]([C@H](C)CC(=O)O)C(=O)N[C@@H](CC(=O)c2ccccc2N)C(=O)O[C@@H]1C`, the MIC is 0.38 mg/L (≈ 0.234 µM) with Staphylococcus aureus [1] and at most 0.25 mg/L in the assay with Staphylococcus aureus [2].

`CN[C@H](CC(C)C)C(=O)N[C@H]1C(=O)N[C@@H](CC(N)=O)C(=O)N[C@H]2C(=O)N[C@H]3C(=O)N[C@H](C(=O)N[C@H](C(=O)O)c4cc(O)cc(O)c4-c4cc3ccc4O)[C@H](O)c3ccc(c(Cl)c3)Oc3cc2cc(c3O[C@@H]2O[C@H](CO)[C@@H](O)[C@H](O)[C@H]2O[C@H]2C[C@](C)(N)[C@H](O)[C@H](C)O2)Oc2ccc(cc2Cl)[C@H]1O` [VANCOMYCIN] registered an MIC against Staphylococcus aureus [2] of over 1 mg/L.
